Measurements taken from ChEMBL document CHEMBL4396965.

Legend:
Assay type in all cases: cell-based
[1] = tested on: PBMC; assay: (§1) Cytotoxicity against human PBMC cells; conditions: pbmc
[2] = tested on: A549; assay: Cytotoxicity against human A549 cells
[3] = tested on: Huh-7; assay: Cytotoxicity against human HuH7 cells
[4] = tested on: CCRF-CEM; assay: Cytotoxicity against human CEM cells
[5] = tested on: Vero; assay: Cytotoxicity against African green monkey Vero cells; conditions: chlorocebus sabaeus
[6] = as §1; conditions: PBMC cells

| SMILES | CC50 [1] [µM] | CC50 [2] [µM] | CC50 [3] [µM] | CC50 [4] [µM] | CC50 [5] [µM] | CC50 [6] [µM] |
| --- | --- | --- | --- | --- | --- | --- |
| Cn1cnc2c(N[C@H]3C4C=CC(CC4)[C@@H]3C(=O)O)nc(-c3c[nH]c4ncc(F)cc34)nc21 (some centres not stated) | > 100 | ≥ 100 | > 100 | 29.1 | > 100 | – |
| O=C(O)[C@H]1C2C=CC(CC2)[C@@H]1Nc1cc2nncn2c(-c2c[nH]c3ncc(F)cc23)n1 (some centres not stated) | > 100 | 51.9 | 71 | 30.8 | > 100 | – |
| O=C(O)[C@H]1C2C=CC(CC2)[C@@H]1Nc1nc2cnc(-c3c[nH]c4ncc(F)cc34)nc2s1 (some centres not stated) | 84.8 | 31.3 | 70.2 | 17.3 | 86.1 | – |
| Cc1csc2c(N[C@H]3C4C=CC(CC4)[C@@H]3C(=O)O)nc(-c3c[nH]c4ncc(F)cc34)nc12 (some centres not stated) | > 100 | > 100 | > 100 | > 100 | > 100 | – |
| O=C(O)[C@H]1C2C=CC(CC2)[C@@H]1Nc1nc(-c2c[nH]c3ncc(F)cc23)nc2ccsc12 (some centres not stated) | 64.6 | 14.7 | 68.7 | 31.6 | 74.9 | – |
| Cn1cnc2nc(-c3c[nH]c4ncc(F)cc34)nc(N[C@H]3C4C=CC(CC4)[C@@H]3C(=O)O)c21 (some centres not stated) | > 100 | > 100 | > 100 | > 100 | > 100 | – |
| O=C(O)[C@H]1C2C=CC(CC2)[C@@H]1Nc1nc(-c2c[nH]c3ncc(F)cc23)nc2sccc12 (some centres not stated) | 9.3 | 14.5 | 24 | 4.2 | 65.9 | – |
| O=C(O)[C@H]1C2C=CC(CC2)[C@@H]1Nc1nc(-c2n[nH]c3ncc(F)cc23)nc2ccsc12 (some centres not stated) | > 100 | 32.5 | 70.7 | 67 | 52.5 | – |
| O=C(O)[C@H]1C2CCC(C3CC32)[C@@H]1Nc1nc(-c2c[nH]c3ncc(F)cc23)ncc1F (some centres not stated) | > 100 | 94.6 | – | 62.9 | > 100 | – |
| O=C(O)[C@H]1C2C=CC(CC2)[C@@H]1c1nnc2c(F)cnc(-c3c[nH]c4ncc(F)cc34)n12 (some centres not stated) | ≥ 100 | 65.4 | ≥ 100 | 41.7 | ≥ 100 | – |
| O=C(O)[C@H]1C2C=CC(CC2)[C@@H]1Nc1nc(-c2c[nH]c3ncc(F)cc23)ncc1F (some centres not stated) | – | – | – | 91.1 | > 100 | > 100 |
| O=C(O)[C@H]1C2C=CC(CC2)[C@@H]1Nc1nc(-c2n[nH]c3ncc(F)cc23)nc2sccc12 (some centres not stated) | > 100 | > 100 | 62.7 | 13.7 | > 100 | – |
| O=C(O)[C@H]1C2C=CC(C2)[C@@H]1Nc1nc(-c2c[nH]c3ncc(F)cc23)ncc1F (some centres not stated) | > 100 | > 100 | > 100 | > 100 | > 100 | – |
| Cc1cc2nc(-c3c[nH]c4ncc(F)cc34)nc(N[C@H]3C4C=CC(CC4)[C@@H]3C(=O)O)c2s1 (some centres not stated) | 78.4 | 41.7 | 31.2 | 12.9 | 90.3 | – |
| O=C(O)C12CC3CC(CC(Nc4nc(-c5c[nH]c6ncc(F)cc56)ncc4F)(C3)C1)C2 | 23.1 | 16.2 | 14.3 | 10.1 | 30.3 | – |
| O=C(O)[C@H]1C2C=CC(CC2)[C@@H]1Nc1nc(-c2n[nH]c3ncc(F)cc23)ncc1F (some centres not stated) | > 100 | 30.6 | 83 | 48.9 | > 100 | – |
| O=C(O)[C@H]1C2CCC(CC2)[C@@H]1Nc1nc(-c2c[nH]c3ncc(F)cc23)ncc1F [PIMODIVIR] | > 100 | 20 | 95.8 | 48.9 | > 100 | – |
